Assay results as given in patent US8138196B2, “Antifungal wallboards and building materials and methods for the production thereof” (Syngenta Crop Protection, Inc., priority 2005, dated 2012).

Columns and labels:
Format in all cases: cell-based
Coniophora puteana = test: radial mycelial growth on fungicide amended agar; conditions: estimated from graph of % activity (radial mycelial growth relative to agar without fungicide) against concentration
Protocol: Stem cultures of Coniophora puteana were produced by propagating the fungus on a growth medium comprising yeast extract (10 g), glycerol (20 ml), magnesium sulphate (0.5 g), sodium nitrate (6.0 g), potassium chloride (0.5 g), potassium dihydrogen orthophosphate (1.5 g), agar (20 g) in distilled water (980 ml).
Fungicides were added at levels of 5000, 100, 10, 1, 0.1 and 0.01 mg fungicide/litre of growth medium (described above) to give […] different growth medium compositions for each fungicide. Mycelial plugs were taken from the stem cultures and transferred upside down onto petri dishes containing the fungicide amended agar.
The radial mycelial growth of the fungus was measured individually on all test petri dishes. The results are expressed as % activity relative to the radial growth on agar without fungicide.
For each fungicide, a graph was drawn of percentage activity against concentration of fungicide in the growth medium. From this graph, the concentrations of fungicide required to achieve 80% activity was estimated. These figures are given in the results table.

[1] = tested on: Alternaria tenuissima (DSM 63360); test: Example 3 liquid culture assay on 24 well plates, solo and 2-way mixtures
Source text: (§1) Alternaria tenuissima (DSM 63360), Penicillium chrysogenum (DSM 895), Stachybotrys chartarum (DSM2144), Aspergillus niger (DSM 63263), Aspergillus versicolor (DSM 1943) and Aureobasidium pullulans (ATCC 15233) were separately cultivated on PDA media to […] sporulation. Spore suspensions were produced for each fungi. Spore concentrations of approx. 100.000 spores/ml were used.
(§2) Test method used: liquid culture assay on 24 well plates.
(§3) For solo (i.e. single) ai testing the formulated fungicide (100 ul) was filled into the 24 well plates and 100 ul distilled water was added. Afterwards 800 ul of 0.3% AE media was added to the plate. The spore suspension of the specific fungi was added to this media in advance containing approx. 100,000 spores/ml. The 24 well plates were sealed and incubated at 24° C.
(§4) Dependent on the growth properties of each organisms, the evaluation was done after 3 to 6 days, when the surface of the check well was covered with mycelium. The evaluation was performed by assessing the growth of the fungi related to the check growth. The results are expressed as % activity relative to the check (values of 0-100% growth). Afterwards the results were converted in % O growth inhibition.
(§5) For synergism testing of the 2-way mixtures 100 ul of each fungicide were filled into 24 well plates and 800 ul of 0.3% AE media containing the spore suspension was added. Different ratios of the 2 fungicide rates were tested at the same time.
(§6) For the mixtures of different fungicides the synergism was calculated based on the Colby equation, which is described below: […]
(§7) The fungicidal action to be expected, We, for a given combination of two fungicides can be calculated as follows (see COLBY, S. R. “Calculating synergistic and antagonistic response of herbicide combinations”. Weeds 15, pages 20-22; 1967): We=X+[Y×(100−X)/100] wherein: • X=% activity in the case of treatment with the compound of formula I at rate x, in comparison with untreated control (=0%). • Y=% activity in the case of treatment with a compound of formula II at rate y, in comparison with untreated control. • We=expected activity (% activity in comparison with untreated control) after treatment with the compound of formula I and a compound of formula II at a rate of x+y kg of active ingredient.
(§8) If the activity actually observed is greater than the expected value We (factor observed activity/expected activity >1.2), there is a synergistic effect.

[2] = tested on: Aspergillus niger (DSM 63263); test: as above; conditions: test 006-2005; rate (AZO) 0.05 mg ai/l
Source text: as §1, §2, §3, §4, §5, §6, §7, §8

[3] = tested on: Aspergillus versicolor (DSM 1943); test: as above; conditions: test 006-2005
Source text: as §1, §2, §3, §4, §5, §6, §7, §8

[4] = tested on: Penicillium chrysogenum (DSM 895); test: as above; conditions: test 006-2005
Source text: as §1, §2, §3, §4, §5, §6, §7, §8

[5] = tested on: Aspergillus niger (DSM 63263); test: Example 4 liquid culture assay on 24 and 48 well plates, 3 way mixtures; conditions: A. niger, AZO 0.05 mg ai/l
Source text: as §1, with “For test 006-2005: Alternaria” for “Alternaria”, “Cladosporium cladosporoides (DSM62121),” for “Stachybotrys chartarum (DSM2144),”, “fungus.” for “fungi.”, “100,000” for “100.000”
For test 015-2006: Alternaria tenuissima (DSM 63360), Penicillium pinophilum (CBS342.61), Gliocladium virens (DSM1963), Aspergillus niger (DSM 63263), Stachybotrys chartarum (DSM 2144) and Aureobasidium pullulans (ATCC 15233) were separately cultivated on PDA media to […] sporulation. Spore suspensions were produced for each fungus. Spore concentrations of approx. 100,000 spores/ml were used.
(§9) Test method used: liquid culture assay on 24 and 48 well plates respectively.
(§10) For testing of the 3 way mixtures each of the formulated fungicide (100 ul) was filled into the 24 and 48 well plates respectively. Afterwards 700 ul of 0.3% AE media was added to the plate. The spore suspension of the specific fungi was added to this media in advance containing approx. 100,000 spores/ml. For testing the solo compounds the equivalent of distilled water was added instead of the formulated fungicide volume of the mixing partners. The plates were then sealed and incubated at 24° C.
as §4, with “%” for “% O”
(§11) For the mixtures of different fungicides the synergism was calculated based on the Colby equation, which is described above.

[6] = tested on: Stachybotrys chartarum (DSM 2144); test: as above; conditions: test 015-2005, S. chartarum
Protocol: […] Spore suspensions were produced for each fungus. Spore concentrations of approx. 100,000 spores/ml were used.
as §9, §10
as §4, with “%” for “% O”
as §11

**Q.** `CO/C=C(/C(=O)OC)c1ccccc1Oc1cc(Oc2ccccc2C#N)ncn1` [Azoxystrobin] was tested. Which “Concentration required for 80% Activity” value (Coniophora puteana) did it give?
**A.** 0.38 mg/L

**Q.** What about the “inh % (AZO alone)” value ([1]; test 006-2005, rate (AZO) 0.05 mg ai/l) of the same compound?
**A.** 10%

**Q.** What about the “inh % (AZO alone)” value ([1]; test 006-2005, rate (AZO) 0.2 mg ai/l) of the same compound?
**A.** 10%

**Q.** What about the “inh % (AZO alone)” value ([1]; test 006-2005, rate (AZO) 0.8 mg ai/l) of the same compound?
**A.** 10%

**Q.** What about the “inh % (AZO alone)” value ([1]; test 006-2005, rate (AZO) 100 mg ai/l) of the same compound?
**A.** 30%

**Q.** And the “inh % (AZO alone)” value ([1]; test 015-2005, rate (AZO) 0.4 mg ai/l)?
**A.** 10%

**Q.** And the “inh % (AZO alone)” value ([1]; test 015-2005, rate (AZO) 0.8 mg ai/l)?
**A.** 10%

**Q.** What about the “inh % (AZO alone)” value ([1]; test 015-2005, rate (AZO) 1.6 mg ai/l) of the same compound?
**A.** 10%

**Q.** And the “inh % (AZO alone)” value ([1]; test 015-2005, rate (AZO) 3.1 mg ai/l)?
**A.** 10%

**Q.** What about the “inh % (AZO alone)” value ([1]; test 015-2005, rate (AZO) 6.25 mg ai/l) of the same compound?
**A.** 10%

**Q.** What about the “inh % (AZO alone)” value [2] of the same compound?
**A.** 10%

**Q.** What about the “inh % (AZO alone)” value ([3]; rate (AZO) 0.8 mg ai/l) of the same compound?
**A.** 30%

**Q.** What about the “inh % (AZO alone)” value ([3]; rate (AZO) 1.6 mg ai/l) of the same compound?
**A.** 30%

**Q.** What about the “inh % (AZO alone)” value ([4]; rate (AZO) 0.05 mg ai/l) of the same compound?
**A.** 10%

**Q.** What about the “inh % (AZO alone)” value ([4]; rate (AZO) 0.2 mg ai/l) of the same compound?
**A.** 0%

**Q.** What about the “inh % (AZO alone)” value ([4]; rate (AZO) 0.8 mg ai/l) of the same compound?
**A.** 10%

**Q.** What about the “inh % (AZO alone)” value ([4]; rate (AZO) 1.6 mg ai/l) of the same compound?
**A.** 10%

**Q.** What about the “inh % (AZO alone)” value ([4]; rate (AZO) 3.12 mg ai/l) of the same compound?
**A.** 10%

**Q.** And the “inh % (AZO alone)” value ([4]; rate (AZO) 12.5 mg ai/l)?
**A.** 10%

**Q.** And the “inh % (AZO alone)” value ([4]; rate (AZO) 50 mg ai/l)?
**A.** 10%

**Q.** And the “inh % (AZO alone)” value ([4]; rate (AZO) 100 mg ai/l)?
**A.** 10%

**Q.** What about the “inh % (AZO alone)” value ([5]; test 006-2005) of the same compound?
**A.** 10%

**Q.** And the “inh % (AZO alone)” value ([5]; test 015-2005)?
**A.** 0%

**Q.** What about the “inh % (AZO alone)” value ([6]; AZO 0.8 mg ai/l) of the same compound?
**A.** 10%

**Q.** And the “inh % (AZO alone)” value ([6]; AZO 1.6 mg ai/l)?
**A.** 10%

**Q.** What about the “inh % (AZO alone)” value ([6]; AZO 3.1 mg ai/l) of the same compound?
**A.** 30%
